# Reference: US20110076298A1, “Soluble stabilized trimeric hiv env proteins and uses thereof” (priority 2006, published 2011)
# Key:
# [1] = system: 2G12, b6, b12, CD4-IgG2, HIVIg; assay: Lectin ELISA antigenicity, untreated vs Tween 20 treated; assay type: binding; conditions: 0.05% Tween 20, lectin ELISA
# Description: FIG. 8: Effect of Tween® 20 treatment on KNH1144 SOSIP R6 HMW aggregate antigenicity. Lectin ELISA of untreated and Tween® 20 treated KNH1144 SOSIP R6 HMW aggregate: Untreated or Tween® 20-treated HMW aggregate were bound to GNA lectin coated ELISA plates and probed with 2G12, b6, b12, CD4-IgG2, and HIVIg. The panels represent their respective binding curves. Antibody affinity to the untreated HMW aggregate is represented by the curve having diamond lines. Affinity to the Tween® 20 treated HMW aggregate is represented by curve having square lines. The Y-axis represents the colorimetric signal at OD492 and the X-axis represents antibody concentration in [ug/ml]. Lectin ELISA of untreated and Tween® 20-treated KNH1144 SOSIP R6 gp140 trimer: Untreated or Tween® 20 treated trimer (containing 10-15% HMW aggregate) were bound to GNA lectin coated ELISA plates and probed with 2G12, b6, b12, and CD4-IgG2. The panels represent their respective binding curves. Antibody affinity to the untreated trimer is represented by the curve having diamond lines. Affinity to the Tween® 20 treated trimer is represented by the curve having square lines. The Y-axis represents the colorimetric signal at OD492 and the X-axis represents antibody concentration in [ug/ml].
# ELISA plates were coated overnight at 4° C. with lentil lectin powder from Lens culinaris (L9267, Sigma) at 10 ug/ml concentration. […]
# [2] = Tween 20 aggregate conversion/collapse experiments, BN-PAGE; assay type: physicochemical; conditions: 0° C., room temperature, 37° C.
# Description: FIGS. 6A-6D: Tween® 20 conversion experiments. (A) Dose response: Purified KNH1144 SOSIP R6 gp140 trimer was incubated with 0 (no detergent control), or 0.1, 0.05, 0.01, 0.001, or 0.0001% Tween® 20 and analyzed by BN-PAGE and Coomassie G-250 stain. Arrows point to HMW aggregate and trimer species. M stands for the 669 k thyroglobulin and 440 k ferritin molecular weight protein standards. (B) Time course: Purified KNH1144 SOSIP R6 gp140 trimer was incubated with Tween® 20 for 5 min (left panel) or 10 min (right panel). Trimer was either untreated (−lane) or Tween® 20 treated (+lane). Arrows indicate trimer and HMW aggregate bands. […]
# Tween® 20 Dose effect: 1 ug of purified KNH1144 SOSIP R6 trimer was incubated with varying concentrations of Tween® 20 (polyoxyethylene sorbitan monolaurate) ranging from 0 to 0.0001% (v/v) and incubated for 1 hour at room temperature. Following incubation, samples were analyzed by BN-PAGE as described above. […]
# Temperature dependance on Tween® 20 effect: To determine if temperature affected the ability of Tween® 20 to recover trimers from aggregates (i.e., collapse aggregate into trimer), 1 ug of purified KNH1144 SOSIP R6 trimer was incubated with Tween® 20 to a final concentration of 0.05% (v/v) at 0° C. […] Following the incubation, samples were analyzed by BN-PAGE and Coomassie staining. […]
substance,measurement,setting,value
"KNH1144 SOSIP R6 HMW aggregate: high molecular weight aggregate species of KNH1144 SOSIP R6 gp140, slower migrating on BN-PAGE","antibody binding, Tween 20 treated vs untreated",[1],increased binding
same,temperature dependence of the Tween 20 effect,[2],temperature independent
